# From PubChem BioAssay AID330 (DTP/NCI, 2004)
# Several values for one entry are separate records, joined by “and”; a condition that tells them apart may be missing. Identical values can stand only once. Inconclusive results and toxic doses are left out. Square brackets hold non-standard residues; d marks the D form. Peptide text beside a SMILES is read from it. ξ: configuration not given here. ξPhe(4-N(CH2CH2Cl)2) = NC(Cc1ccc(N(CCCl)CCCl)cc1)C(=O)O
# Test system: P388 leukemia ip, CD2F1 mice, survival T/C
# Assay: NCI In Vivo Anticancer Drug Screen. Data for tumor model P388 Leukemia (intraperitoneal) in CD2F1 (CDF1) mice
# Details: endpoint: median survival time, higher = longer survival
# Summary of the method: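 Mice carrying the transplanted tumor received test compound or vehicle. Survival was recorded in each group, and the value is the treated-group measurement divided by that of the vehicle-treated control group.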
# [1] = dose: 12.5 mg/kg/injection, schedule: Q01DX009 (ip), vehicle: saline
# [2] = dose: 25.0 mg/kg/injection, schedule: Q01DX009 (ip), vehicle: saline
# [3] = dose: 50.0 mg/kg/injection, schedule: Q01DX005 (ip), vehicle: Klucel (hydroxypropylcellulose) (HPC)
# [4] = dose: 100.0 mg/kg/injection, schedule: Q01DX005 (ip), vehicle: Klucel (hydroxypropylcellulose) (HPC)
# [5] = dose: 200.0 mg/kg/injection, schedule: Q01DX005 (ip), vehicle: Klucel (hydroxypropylcellulose) (HPC)
# [6] = dose: 100.0 mg/kg/injection, schedule: Q01DX005 (ip), vehicle: saline with Tween-80
# [7] = dose: 200.0 mg/kg/injection, schedule: Q01DX005 (ip), vehicle: saline with Tween-80
# [8] = dose: 100.0 mg/kg/injection, schedule: Q01DX009 (ip), vehicle: saline with Tween-80
structure (smiles),measurement,setting,value
CC(=O)NNC(=O)c1ccccn1,T/C,[1],90 % of control
same,T/C,[2],92 % of control
same,T/C,"dose: 50.0 mg/kg/injection, schedule: Q01DX009 (ip), vehicle: saline",96 % of control
same,T/C,"dose: 50.0 mg/kg/injection, schedule: Q01DX009 (ip), vehicle: water",110 % of control
same,T/C,"dose: 75.0 mg/kg/injection, schedule: Q01DX009 (ip), vehicle: water",110 % of control
same,T/C,"dose: 100.0 mg/kg/injection, schedule: Q01DX009 (ip), vehicle: saline",100 % of control
same,T/C,"dose: 100.0 mg/kg/injection, schedule: Q01DX009 (ip), vehicle: water",120 % of control
same,T/C,"dose: 125.0 mg/kg/injection, schedule: Q01DX009 (ip), vehicle: water",120 % of control
same,T/C,"dose: 200.0 mg/kg/injection, schedule: Q01DX009 (ip), vehicle: saline",88 % of control
COc1cc(/C=C/C=C(C(=O)O)C(=O)O)ccc1OCc1ccccc1,T/C,[3],100 % of control
same,T/C,[4],98 % of control
same,T/C,[5],92 % of control
O=C(O)[C@H](Cc1ccccc1)N1C(=O)c2ccccc2C1=O,T/C,"dose: 50.0 mg/kg/injection, schedule: Q01DX005 (ip), vehicle: DMSO",105 % of control
same,T/C,[3],109 % of control
same,T/C,"dose: 100.0 mg/kg/injection, schedule: Q01DX005 (ip), vehicle: DMSO",100 % of control
same,T/C,[4],105 % of control
same,T/C,[6],99 % of control
same,T/C,"dose: 125.0 mg/kg/injection, schedule: Q01DX001 (ip), vehicle: saline with Tween-80",102 % of control
same,T/C,"dose: 200.0 mg/kg/injection, schedule: Q01DX005 (ip), vehicle: DMSO",100 % of control
same,T/C,[5],101 % of control
same,T/C,[7],107 % of control
same,T/C,"dose: 250.0 mg/kg/injection, schedule: Q01DX001 (ip), vehicle: saline with Tween-80",95 % of control
same,T/C,"dose: 400.0 mg/kg/injection, schedule: Q01DX005 (ip), vehicle: DMSO",100 % of control
same,T/C,"dose: 400.0 mg/kg/injection, schedule: Q01DX005 (ip), vehicle: saline with Tween-80",105 % of control
same,T/C,"dose: 500.0 mg/kg/injection, schedule: Q01DX001 (ip), vehicle: saline with Tween-80",100 % of control and 105 % of control
same,T/C,"dose: 800.0 mg/kg/injection, schedule: Q01DX005 (ip), vehicle: DMSO",107 % of control
CCCCOCCOCCOCCOCCCN1C(=O)C2C3C=CC(C3)C2C1=O (stereo not given),T/C,[3],97 % of control
same,T/C,[4],100 % of control
CC1CCN(C(=O)c2cc(Nc3ccnc4cc(Cl)ccc34)ccc2O)CC1,T/C,"dose: 100.0 mg/kg/injection, schedule: Q04DX002 (ip), vehicle: saline with Tween-80",99 % of control
same,T/C,"dose: 200.0 mg/kg/injection, schedule: Q04DX002 (ip), vehicle: saline with Tween-80",99 % of control
same,T/C,"dose: 400.0 mg/kg/injection, schedule: Q04DX002 (ip), vehicle: saline with Tween-80",89 % of control
CCOC(=O)C(Cc1ccc(N(CCCl)CCCl)cc1)NC(=O)C(CCC(=O)O)NC(=O)C(CO)NC(=O)C(CCC(=O)O)NC(=O)C(N)CO (stereo not given) (H-SESE[ξPhe(4-N(CH2CH2Cl)2)]-OEt; configuration not given here),T/C,"dose: 5.0 mg/kg/injection, schedule: Q04DX003 (ip), vehicle: water",95 % of control
same,T/C,"dose: 10.0 mg/kg/injection, schedule: Q04DX003 (ip), vehicle: water",106 % of control
same,T/C,"dose: 20.0 mg/kg/injection, schedule: Q04DX003 (ip), vehicle: water",94 % of control
same,T/C,"dose: 40.0 mg/kg/injection, schedule: Q04DX003 (ip), vehicle: water",105 % of control and 119 % of control
OC(c1cc(-c2ccc(C(F)(F)F)cc2)nc(C(F)(F)F)c1)C1CCCCN1 (stereo not given),T/C,"dose: 6.25 mg/kg/injection, schedule: Q01DX009 (ip), vehicle: saline",101 % of control
same,T/C,"dose: 12.5 mg/kg/injection, schedule: Q01DX009 (ip), vehicle: saline with Tween-80",95 % of control
same,T/C,[1],103 % of control
same,T/C,"dose: 25.0 mg/kg/injection, schedule: Q01DX009 (ip), vehicle: saline with Tween-80",100 % of control
same,T/C,[2],107 % of control
C=C1C(NC)CCC23CC24CCC2(C)C(C(C)=O)C(O)CC2(C)C4CCC13 (stereo not given),T/C,"dose: 50.0 mg/kg/injection, schedule: Q01DX009 (ip), vehicle: saline with Tween-80",92 % of control
same,T/C,[8],96 % of control
CC1CS(=O)(=O)O1 (stereo not given),T/C,"dose: 60.0 mg/kg/injection, schedule: Q01DX005 (ip), vehicle: Klucel (hydroxypropylcellulose) (HPC)",104 % of control
same,T/C,"dose: 120.0 mg/kg/injection, schedule: Q01DX005 (ip), vehicle: Klucel (hydroxypropylcellulose) (HPC)",103 % of control
same,T/C,"dose: 240.0 mg/kg/injection, schedule: Q01DX005 (ip), vehicle: Klucel (hydroxypropylcellulose) (HPC)",110 % of control
COc1ccc(NC(=S)NC2C(OC(C)=O)OC(COC(C)=O)C(OC(C)=O)C2OC(C)=O)cc1 (stereo not given),T/C,"dose: 50.0 mg/kg/injection, schedule: Q01DX005 (ip), vehicle: saline with Tween-80",92 % of control
same,T/C,[6],92 % of control
same,T/C,[7],89 % of control
CCN(CC)c1ccc(N=Nc2ccc(Br)cn2)c(O)c1,T/C,"dose: 60.0 mg/kg/injection, schedule: Q01DX005 (ip), vehicle: Klucel + Tween-80",104 % of control
same,T/C,"dose: 120.0 mg/kg/injection, schedule: Q01DX005 (ip), vehicle: Klucel + Tween-80",95 % of control
same,T/C,"dose: 240.0 mg/kg/injection, schedule: Q01DX005 (ip), vehicle: Klucel + Tween-80",92 % of control
c1ccc(C(Nc2nncs2)Nc2nncs2)cc1,T/C,"dose: 30.0 mg/kg/injection, schedule: Q01DX005 (ip), vehicle: saline with Tween-80",99 % of control
same,T/C,"dose: 60.0 mg/kg/injection, schedule: Q01DX005 (ip), vehicle: saline with Tween-80",100 % of control and 112 % of control
same,T/C,"dose: 120.0 mg/kg/injection, schedule: Q01DX005 (ip), vehicle: saline with Tween-80",117 % of control
same,T/C,"dose: 240.0 mg/kg/injection, schedule: Q01DX005 (ip), vehicle: saline with Tween-80",157 % of control and 164 % of control
O=C(O)c1cc2ccccc2o1,T/C,"dose: 25.0 mg/kg/injection, schedule: Q04DX003 (ip), vehicle: saline with Tween-80",100 % of control
same,T/C,"dose: 50.0 mg/kg/injection, schedule: Q04DX003 (ip), vehicle: saline with Tween-80",104 % of control
same,T/C,[8],95 % of control
same,T/C,"dose: 100.0 mg/kg/injection, schedule: Q04DX003 (ip), vehicle: saline with Tween-80",104 % of control
same,T/C,"dose: 200.0 mg/kg/injection, schedule: Q01DX009 (ip), vehicle: saline with Tween-80",95 % of control
